Experimental findings from patent US8436004B2, “Bicycloaniline derivative” (MSD K.K., priority 2007, dated 2013) are described below.

The subject of this experiment is Human colon cancer cells WiDr. Put plainly: Tumor growth inhibitory effect, WiDr subcutaneous xenograft in nude rats. Type of experiment: in vivo, F344/N Jcl-rnu nude rats. As for the experimental part: Pharmacological Test 4 (Tumor Growth Inhibitory Effect)
Human colon cancer cells WiDr (obtained from ATCC) were implanted into the subcutaneous area of the back of F344/N Jcl-rnu nude rats. 12 days after the implantation, 5 mg/kg of gemcitabine (Gemzar, from Eli Lily) was intravenously administered to them; and after 24 hours, a test compound suspended in a solvent (0.5% methyl cellulose) was orally administered thereto. This was repeated once a week for 3 weeks. The tumor volume (0.5×major diameter×(minor diameter)^2) was measured on days 0, 3, 6, 10, 13, 17, 20, 24 and 27 (the first gemcitabine administration is on day 0). The relative tumor volume was calculated, based on the tumor volume on day 0, as 1. The tumor growth rate (% T/C) was obtained according to the formulae mentioned below.
In case where the tumor volume change from day 0 in the test compound administration group is more than 0 (>0): % T/C=(tumor volume change in the test compound group on days 3, 6, 10, 13, 17, 20, 24 and 27/tumor volume change in the control group on days 3, 6, 10, 13, 17, 20, 24 and 27)×100. In case where the tumor volume change from day 0 in the test compound administration group is less than 0 (<0): % T/C=(tumor volume change in the test compound group on days 3, 6, 10, 13, 17, 20, 24 and 27/tumor volume […] in the test compound group on day 0)×100.
Gemcitabine was administered on days 0, 7 and 14. The compound of Example 1 was administered on days 1, 8 and 15.

Molecules are shown by their SMILES.

With `Nc1ccn([C@@H]2O[C@H](CO)[C@@H](O)C2(F)F)c(=O)n1` [Gemcitabine, gemcitabine], the “% T/C day 3” value (day 3, gemcitabine 5 mg/kg i.v. days 0, 7, 14, Example 1 15 mg/kg oral days 1, 8, 15, n=5) is given as 62%. The “% T/C day 6” value (day 6, gemcitabine 5 mg/kg i.v. days 0, 7, 14, Example 1 15 mg/kg oral days 1, 8, 15, n=5) is reported as 67%. Also, the “% T/C day 10” value (day 10, gemcitabine 5 mg/kg i.v. days 0, 7, 14, Example 1 15 mg/kg oral days 1, 8, 15, n=5) is reported as 66%. Besides, the “% T/C day 13” value (day 13, gemcitabine 5 mg/kg i.v. days 0, 7, 14, Example 1 15 mg/kg oral days 1, 8, 15, n=5) is 64%. For the same compound, the “% T/C day 17” value (day 17, gemcitabine 5 mg/kg i.v. days 0, 7, 14, Example 1 15 mg/kg oral days 1, 8, 15, n=5) is 57%. Moreover, the “% T/C day 20” value (day 20, gemcitabine 5 mg/kg i.v. days 0, 7, 14, Example 1 15 mg/kg oral days 1, 8, 15, n=5) is reported as 49%. Moreover, the “% T/C day 24” value (day 24, gemcitabine 5 mg/kg i.v. days 0, 7, 14, Example 1 15 mg/kg oral days 1, 8, 15, n=5) stood at 52%. In addition, the “% T/C day 27” value (day 27, gemcitabine 5 mg/kg i.v. days 0, 7, 14, Example 1 15 mg/kg oral days 1, 8, 15, n=5) was 54%. Also, the “tumor growth rate, result in words” value (summary of Table 5) is listed as “reduced the tumor growth rate”.
